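How tested: cells in 96-well plates exposed to compound for 48 hours at five concentrations. GI50 is the concentration that inhibits growth by half.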 Active and inactive are the calls of the source. Rule as the data show it: active = GI50 up to about 1.1 µM and inactive = higher.
How the values were obtained:
Assay in all cases: NCI-60 cell line screen, 48 h
[1] = system: 786-0
[2] = system: A498
[3] = system: A549
[4] = system: CAKI-1
[5] = system: COLO 205
[6] = system: DU-145
[7] = system: EKVX
[8] = system: HCT-15
[9] = system: IGROV-1
[10] = system: K562
[11] = system: MDA-MB-231
[12] = system: NCI-H226
[13] = system: NCI/ADR-RES
[14] = system: OVCAR-5
[15] = system: SF-268
[16] = system: SK-MEL-28
[17] = system: SK-MEL-5
[18] = system: SN12C
[19] = system: SNB-75

Compound	GI50 [1]	GI50 [2]	GI50 [3]	GI50 [4]	GI50 [5]	GI50 [6]	GI50 [7]	GI50 [8] [µM]	GI50 [9]	GI50 [10]	GI50 [11]	GI50 [12]	GI50 [13]	GI50 [14]	GI50 [15]	GI50 [16]	GI50 [17]	GI50 [18]	GI50 [19]
CCOC(=O)/C=C(/C(=O)OCC)n1ccc(=O)n(CC(=O)OCC)c1=O	0.412 µM (active)	14.8 µM (inactive)	6.17 µM (inactive)	0.146 µM (active)	0.284 µM (active)	5.01 µM (inactive)	1.89 µM (inactive)	0.463	1.61 µM (inactive)	0.348 µM (active)	2.04 µM (inactive)	2.22 µM (inactive)	2.63 µM (inactive)	1.67 µM (inactive)	3.11 µM (inactive)	1.68 µM (inactive)	2.36 µM (inactive)	1.1 µM (active)	2.48 µM (inactive)
N#Cc1c(N)nc2c(C#N)c(N)cc3c2c1Oc1ccccc1-3	> 100 µM (inactive)	> 100 µM (inactive)	> 100 µM (inactive)	> 100 µM (inactive)	> 100 µM (inactive)	> 100 µM (inactive)	> 100 µM (inactive)	> 100	> 100 µM (inactive)	> 100 µM (inactive)	> 100 µM (inactive)	> 100 µM (inactive)	> 100 µM (inactive)	> 100 µM (inactive)	> 100 µM (inactive)	> 100 µM (inactive)	> 100 µM (inactive)	> 100 µM (inactive)	> 100 µM (inactive)
CC(C)N1CCN(c2ccncc2S(=O)(=O)N2CCCCC2)CC1	> 100 µM (inactive)	> 100 µM (inactive)	> 100 µM (inactive)	> 100 µM (inactive)	> 100 µM (inactive)	> 100 µM (inactive)	> 100 µM (inactive)	> 100	> 100 µM (inactive)	> 100 µM (inactive)	> 100 µM (inactive)	> 100 µM (inactive)	> 100 µM (inactive)	> 100 µM (inactive)	> 100 µM (inactive)	> 100 µM (inactive)	> 100 µM (inactive)	> 100 µM (inactive)	> 100 µM (inactive)
O=C(O)C(Cc1ccccc1)Cc1ccccc1	> 100 µM (inactive)	> 100 µM (inactive)	> 100 µM (inactive)	> 100 µM (inactive)	> 100 µM (inactive)	> 100 µM (inactive)	> 100 µM (inactive)	> 100	> 100 µM (inactive)	> 100 µM (inactive)	> 100 µM (inactive)	> 100 µM (inactive)	> 100 µM (inactive)	> 100 µM (inactive)	> 100 µM (inactive)	> 100 µM (inactive)	> 100 µM (inactive)	> 100 µM (inactive)	> 100 µM (inactive)
O=P1(C(O)/C=C/c2ccccc2)N(Cc2ccccc2)[C@@H]2CCCC[C@H]2N1Cc1ccccc1 (stereo not given in full)	5.94 µM (inactive)	3.02 µM (inactive)	4.62 µM (inactive)	13.1 µM (inactive)	2.42 µM (inactive)	12.9 µM (inactive)	6.7 µM (inactive)	6.14	3.41 µM (inactive)	3.74 µM (inactive)	10.8 µM (inactive)	4.51 µM (inactive)	9.53 µM (inactive)	10.6 µM (inactive)	4.05 µM (inactive)	11.2 µM (inactive)	4.58 µM (inactive)	3.32 µM (inactive)	12 µM (inactive)
COc1c(C(=O)CC2c3c(cc4oc(C)cc(=O)c4c3OC)OC(=N)C2c2nc3ccccc3[nH]2)c(O)c(OC)c2occc12 (stereo not given)	> 100 µM (inactive)	> 100 µM (inactive)	> 100 µM (inactive)	> 100 µM (inactive)	> 100 µM (inactive)	> 100 µM (inactive)	> 100 µM (inactive)	> 100	> 100 µM (inactive)	> 100 µM (inactive)	> 100 µM (inactive)	> 100 µM (inactive)	> 100 µM (inactive)	> 100 µM (inactive)	> 100 µM (inactive)	> 100 µM (inactive)	> 100 µM (inactive)	> 100 µM (inactive)	> 100 µM (inactive)
CC(Br)C(=O)NC(CO)C(=O)O (stereo not given)	> 100 µM (inactive)	> 100 µM (inactive)	> 100 µM (inactive)	> 100 µM (inactive)	> 100 µM (inactive)	> 100 µM (inactive)	> 100 µM (inactive)	> 100	> 100 µM (inactive)	> 100 µM (inactive)	> 100 µM (inactive)	> 100 µM (inactive)	> 100 µM (inactive)	> 100 µM (inactive)	> 100 µM (inactive)	> 100 µM (inactive)	> 100 µM (inactive)	> 100 µM (inactive)	> 100 µM (inactive)
CC(=O)NCCCCN(CCCNC(C)=O)C(=O)OCc1ccccc1	> 100 µM (inactive)	> 100 µM (inactive)	> 100 µM (inactive)	> 100 µM (inactive)	> 100 µM (inactive)	> 100 µM (inactive)	> 100 µM (inactive)	> 100	> 100 µM (inactive)	> 100 µM (inactive)	> 100 µM (inactive)	> 100 µM (inactive)	> 100 µM (inactive)	> 100 µM (inactive)	> 100 µM (inactive)	> 100 µM (inactive)	> 100 µM (inactive)	> 100 µM (inactive)	19.1 µM (inactive)
CC1=C2C(=C[C@@](C)(CO)[C@@H]2O)C(=O)[C@](C)(O)C12CC2 [ILLUDIN]	0.00353 µM (active)	0.0104 µM (active)	0.00458 µM (active)	0.0158 µM (active)	0.00771 µM (active)	0.0181 µM (active)	0.027 µM (active)	0.00675	0.0155 µM (active)	0.012 µM (active)	0.0213 µM (active)	0.0231 µM (active)	0.0074 µM (active)	0.0106 µM (active)	0.00293 µM (active)	0.0167 µM (active)	0.00596 µM (active)	0.019 µM (active)	0.0138 µM (active)
Clc1ccc(C2=C(c3ccccc3)C(c3ccc(Cl)cc3)N3C(=N[C@H]4CCCC[C@@H]43)N2)cc1 (stereo not given in full)	14.7 µM (inactive)	17.3 µM (inactive)	10.3 µM (inactive)	16.1 µM (inactive)	6.64 µM (inactive)	13.2 µM (inactive)	12.4 µM (inactive)	5.96	12.9 µM (inactive)	2.3 µM (inactive)	14.9 µM (inactive)	21 µM (inactive)	11.4 µM (inactive)	16.3 µM (inactive)	19.9 µM (inactive)	13.7 µM (inactive)	12.3 µM (inactive)		15.2 µM (inactive)
Cc1ccc(Nc2n[nH]c(NS(=O)(=O)c3cc(C)c(Cl)cc3S)n2)cc1	> 100 µM (inactive)	> 100 µM (inactive)	> 100 µM (inactive)	> 100 µM (inactive)	> 100 µM (inactive)	> 100 µM (inactive)	> 100 µM (inactive)	> 100	> 100 µM (inactive)	> 100 µM (inactive)	> 100 µM (inactive)	> 100 µM (inactive)	> 100 µM (inactive)	> 100 µM (inactive)	> 100 µM (inactive)	> 100 µM (inactive)	> 100 µM (inactive)	> 100 µM (inactive)	> 100 µM (inactive)
CCN(CC)CCO/N=C1\CC[C@H]2[C@@H]3CC=C4C[C@@H](O)CC[C@]4(C)[C@H]3CC[C@]12C	17.3 µM (inactive)	18.5 µM (inactive)		14.5 µM (inactive)	12.8 µM (inactive)	18.9 µM (inactive)	35 µM (inactive)	10.5	31.8 µM (inactive)	7.98 µM (inactive)	19.7 µM (inactive)	15 µM (inactive)	26.1 µM (inactive)	33 µM (inactive)	34 µM (inactive)	15.7 µM (inactive)	12.1 µM (inactive)	45.6 µM (inactive)	26.4 µM (inactive)
CCn1c(-c2ccc(C)cc2)cs/c1=N\C(P(=O)(O)O)P(=O)(O)O	> 100 µM (inactive)	> 100 µM (inactive)	> 100 µM (inactive)	> 100 µM (inactive)	> 100 µM (inactive)	> 100 µM (inactive)	> 100 µM (inactive)	> 100	> 100 µM (inactive)	> 100 µM (inactive)	> 100 µM (inactive)	> 100 µM (inactive)	> 100 µM (inactive)	> 100 µM (inactive)	> 100 µM (inactive)	> 100 µM (inactive)	31.6 µM (inactive)		> 100 µM (inactive)
COc1ccc2c(c1)CC1Cc3cc(OC)c(OC)cc3CN1CC2 (stereo not given)	27.2 µM (inactive)	28.6 µM (inactive)	42.4 µM (inactive)	35.5 µM (inactive)	23.7 µM (inactive)	36.6 µM (inactive)	32.8 µM (inactive)	44.7	17.3 µM (inactive)	17.5 µM (inactive)	42.6 µM (inactive)	21.7 µM (inactive)	31.8 µM (inactive)	56 µM (inactive)	82.2 µM (inactive)	42.8 µM (inactive)	21.3 µM (inactive)		29.7 µM (inactive)
CSC1NC(c2ccc(Cl)cc2)=C(C#N)C(=O)N1C1OCC(OC(C)=O)C(OC(C)=O)C1OC(C)=O (stereo not given)	> 100 µM (inactive)	34.8 µM (inactive)		> 100 µM (inactive)	> 100 µM (inactive)	> 100 µM (inactive)	> 100 µM (inactive)	62.1	> 100 µM (inactive)	> 100 µM (inactive)	> 100 µM (inactive)	> 100 µM (inactive)	> 100 µM (inactive)	> 100 µM (inactive)	> 100 µM (inactive)	> 100 µM (inactive)	81.1 µM (inactive)	45.1 µM (inactive)	> 100 µM (inactive)

From ChEMBL document CHEMBL1201862, “PubChem BioAssay data set” (2004)
